This experiment addresses T1, human recombinant FKBP12 (Homo sapiens, UniProt P62942).
T1 construct: purchased Sigma F-5398
Briefly: Test 1: immunophilin FKBP12 rotamase (peptidylprolyl isomerase) inhibiting activity. Type of experiment: biochemical. The conditions noted are these: 12 nM human recombinant FKBP12, substrate succinyl-Ala-Phe-Pro-Phe-paranitroanilide 48 μM, 4° C.; read-out: PKBP12 rotamase inhibiting activity IC50. How it is done:
(Test 1) Test for Measuring Immunophilin FKBP12 Rotamase Activity
The rotamase (peptidylprolyl isomerase) inhibiting activity of each test compound was measured by a known method (Harding et al., Nature 341, 758-760, 1989; Holts et al., J. Am. Chem. Soc. 115, 9925-9938, 1993.) To be more specific, a plastic cuvette was charged with 35 mM HEPES (pH 7.8), 12 nM human recombinant FKBP12 (Sigma, F-5398), 0.4 mg/mL α-chymotrypsin, and a test compound dissolved in DMSO at varying concentrations (DMSO's final concentration was 0.1%.) Subsequently, 24 mM of the substrate peptide, succinyl-Ala-Phe-Pro-Phe-paranitroanilide, as dissolved in trifluoroethanol containing 500 mM of LiCl was added to give a final concentration of 48 μM, whereupon reaction started. The reaction was carried out at 4° C. and the change in absorbance at 390 nm accompanying the liberation of the paranitroaniline product was monitored. A calculated initial rate minus the corresponding value in the absence of the enzyme was used as an index of rotamase activity. The rotamase inhibiting activity of a test compound was expressed in relative values (%) with respect to the control value of rotamase activity in the absence of the compound, and the concentration of the compound at which it was capable of inhibiting rotamase activity by 50% was calculated as an IC50 value from its concentration response curve.

Each structure is given as a SMILES string.

T1 sequence (P62942 whole entry): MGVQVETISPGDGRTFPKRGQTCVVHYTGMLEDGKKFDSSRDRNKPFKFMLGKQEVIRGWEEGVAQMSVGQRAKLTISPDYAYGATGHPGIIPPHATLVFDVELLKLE

Take `COc1ccc(OCc2nnc([C@@H]3CCCN3C(=O)C(F)(F)C3(O)CC(C)(C)CC(C)(C)C3)o2)cc1OC` [Compound 2, (S)-1-(2-(5-((3,4-Dimethoxyphenoxy)methyl)-1,3,4-oxadiazol-2-yl)pyrrolidin-1-yl)-2,2-difluoro-2-(1-hydroxy-3,3,5,5-tetramethylcyclohexyl)ethanone]: the IC50 is 0.062 µM.
In the case of `COc1ccc(OCc2noc([C@@H]3CCCN3C(=O)C(F)(F)C3(O)CC(C)(C)CC(C)(C)C3)n2)cc1OC` [Compound 3, (S)-1-(2-(3-((3,4-Dimethoxyphenoxy)methyl)-1,2,4-oxadiazol-5-yl)pyrrolidin-1-yl)-2,2-difluoro-2-(1-hydroxy-3,3,5,5-tetramethylcyclohexyl)ethanone], the IC50 was 0.5 to 1 µM.
`COc1ccc(OCc2nnc([C@@H]3CCCN3C(=O)C(F)(F)C3(O)CC(C)(C)CC(C)(C)C3)s2)cc1OC` [Compound 4, (S)-1-(2-(5-((3,4-Dimethoxyphenoxy)methyl)-1,3,4-thiadiazol-2-yl)pyrrolidin-1-yl)-2,2-difluoro-2-(1-hydroxy-3,3,5,5-tetramethylcyclohexyl)ethanone]: the IC50 worked out at 0.145 µM.
For `COc1ccc(OCc2nc([C@@H]3CCCN3C(=O)C(F)(F)C3(O)CC(C)(C)CC(C)(C)C3)n[nH]2)cc1OC` [Compound 5, (S)-1-(2-(5-((3,4-Dimethoxyphenoxy)methyl)-4H-1,2,4-triazol-3-yl)pyrrolidin-1-yl)-2,2-difluoro-2-(1-hydroxy-3,3,5,5-tetramethylcyclohexyl)ethanone], the half-inhibitory concentration (IC50) came to 0.119 µM.
For `COc1ccc(OCc2cnc([C@@H]3CCCN3C(=O)C(F)(F)C3(O)CC(C)(C)CC(C)(C)C3)o2)cc1OC` [Compound 6, (S)-1-(2-(5-((3,4-Dimethoxyphenoxy)methyl)oxazol-2-yl)pyrrolidin-1-yl)-2,2-difluoro-2-(1-hydroxy-3,3,5,5-tetramethylcyclohexyl)ethanone] the value was 0.5 to 1 µM; for `COc1ccc(OCc2cnc([C@@H]3CCCN3C(=O)C(F)(F)C3(O)CC(C)(C)CC(C)(C)C3)s2)cc1OC` [Compound 7, (S)-1-(2-(5-((3,4-Dimethoxyphenoxy)methyl)thiazol-2-yl)pyrrolidin-1-yl)-2,2-difluoro-2-(1-hydroxy-3,3,5,5-tetramethylcyclohexyl)ethanone], 0.5 to 1 µM; for `COc1ccc(OCc2nc([C@@H]3CCCN3C(=O)C(F)(F)C3(O)CC(C)(C)CC(C)(C)C3)nn2C)cc1OC` [Compound 8, (S)-1-(2-(5-((3,4-Dimethoxyphenoxy)methyl)-1-methyl-1H-1,2,4-triazol-3-yl)pyrrolidin-1-yl)-2,2-difluoro-2-(1-hydroxy-3,3,5,5-tetramethylcyclohexyl)ethanone], 0.189 µM.
Consider `COc1ccc(OCc2cc([C@@H]3CCCN3C(=O)C(F)(F)C3(O)CC(C)(C)CC(C)(C)C3)nn2C)cc1OC` [Compound 9, (S)-1-(2-(5-((3,4-Dimethoxyphenoxy)methyl)-1-methyl-1H-pyrazol-3-yl)pyrrolidin-1-yl)-2,2-difluoro-2-(1-hydroxy-3,3,5,5-tetramethylcyclohexyl)ethanone], for which the IC50 lay within 0.5 to 1 µM.
Regarding `COc1ccc(OCc2cc([C@@H]3CCCN3C(=O)C(F)(F)C3(O)CC(C)(C)CC(C)(C)C3)on2)cc1OC` [Compound 10, (S)-1-(2-(3-((3,4-Dimethoxyphenoxy)methyl)isoxazol-5-yl)pyrrolidin-1-yl)-2,2-difluoro-2-(1-hydroxy-3,3,5,5-tetramethylcyclohexyl)ethanone], the IC50 was 0.5 to 1 µM.
For the compound `COc1ccc(OCc2cc([C@@H]3CCCN3C(=O)C(F)(F)C3(O)CC(C)(C)CC(C)(C)C3)n[nH]2)cc1OC` [Compound 11, (S)-1-(2-(5-((3,4-Dimethoxyphenoxy)methyl)-1H-pyrazol-3-yl)pyrrolidin-1-yl)-2,2-difluoro-2-(1-hydroxy-3,3,5,5-tetramethylcyclohexyl)ethanone], the IC50 was determined as 0.235 µM.
As for `COc1ccc(CCc2nnc([C@@H]3CCCN3C(=O)C(F)(F)C3(O)CC(C)(C)CC(C)(C)C3)o2)cc1OC` [Compound 12], the IC50 is 0.27 µM.

The values above are taken from patent US20130345419A1, “AZOLE DERIVATIVE” (TAISHO PHARMACEUTICAL CO., LTD., priority 2011, published 2013).
